Reference: ChEMBL document CHEMBL4364276, “Discovery of 4-phenyl-2H-benzo[b][1,4]oxazin-3(4H)-one derivatives as potent and orally active PI3K/mTOR dual inhibitors” (Eur J Med Chem, 2019)

Experiments:
[1] = target: Dual specificity mitogen-activated protein kinase kinase 6 (Homo sapiens) (UniProt P52564); experiment: Inhibition of human MKK6 at 100 nM using p38alpha as substrate by [gamma-33P]-ATP assay
[2] = target: Serine/threonine-protein kinase D1 (Homo sapiens) (UniProt Q15139); experiment: Inhibition of human PKCmu at 100 nM using KKLNRTLSVA as substrate by [gamma-33P]-ATP assay
Chain of Serine/threonine-protein kinase D1 (Homo sapiens) (Q15139 whole entry): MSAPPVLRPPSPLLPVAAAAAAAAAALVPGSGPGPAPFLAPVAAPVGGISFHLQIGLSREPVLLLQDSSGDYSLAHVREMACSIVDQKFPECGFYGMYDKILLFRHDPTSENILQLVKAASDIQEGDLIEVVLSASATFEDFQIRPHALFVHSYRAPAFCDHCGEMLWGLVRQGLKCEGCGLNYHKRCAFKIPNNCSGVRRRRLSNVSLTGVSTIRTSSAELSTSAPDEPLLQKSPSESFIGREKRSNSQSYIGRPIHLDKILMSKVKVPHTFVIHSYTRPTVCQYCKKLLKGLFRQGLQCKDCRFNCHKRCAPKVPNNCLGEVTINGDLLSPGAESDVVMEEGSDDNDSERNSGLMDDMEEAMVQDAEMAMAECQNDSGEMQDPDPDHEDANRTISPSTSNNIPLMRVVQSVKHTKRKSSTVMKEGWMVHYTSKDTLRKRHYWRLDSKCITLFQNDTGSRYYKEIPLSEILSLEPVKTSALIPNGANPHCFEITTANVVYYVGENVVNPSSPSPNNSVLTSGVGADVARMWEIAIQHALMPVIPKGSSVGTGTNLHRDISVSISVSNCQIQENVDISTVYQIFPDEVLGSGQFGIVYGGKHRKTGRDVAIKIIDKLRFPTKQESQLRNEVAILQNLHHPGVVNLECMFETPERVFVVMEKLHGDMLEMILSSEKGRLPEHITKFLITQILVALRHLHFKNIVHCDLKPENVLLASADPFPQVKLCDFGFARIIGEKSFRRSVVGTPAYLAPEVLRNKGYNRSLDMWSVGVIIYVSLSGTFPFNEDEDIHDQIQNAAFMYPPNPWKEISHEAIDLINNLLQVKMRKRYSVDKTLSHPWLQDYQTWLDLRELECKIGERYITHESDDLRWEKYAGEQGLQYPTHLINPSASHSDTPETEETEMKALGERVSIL

[3] = target: Serine/threonine-protein kinase 38-like (Homo sapiens) (UniProt Q9Y2H1); experiment: Inhibition of human STK38L at 100 nM using KKRNRRLSVA as substrate by [gamma-33P]-ATP assay
[4] = target: Lymphokine-activated killer T-cell-originated protein kinase (Homo sapiens) (UniProt Q96KB5); experiment: Inhibition of human PBK at 100 nM using MBP as substrate by [gamma-33P]-ATP assay
Chain of Lymphokine-activated killer T-cell-originated protein kinase (Homo sapiens) (Q96KB5 whole entry): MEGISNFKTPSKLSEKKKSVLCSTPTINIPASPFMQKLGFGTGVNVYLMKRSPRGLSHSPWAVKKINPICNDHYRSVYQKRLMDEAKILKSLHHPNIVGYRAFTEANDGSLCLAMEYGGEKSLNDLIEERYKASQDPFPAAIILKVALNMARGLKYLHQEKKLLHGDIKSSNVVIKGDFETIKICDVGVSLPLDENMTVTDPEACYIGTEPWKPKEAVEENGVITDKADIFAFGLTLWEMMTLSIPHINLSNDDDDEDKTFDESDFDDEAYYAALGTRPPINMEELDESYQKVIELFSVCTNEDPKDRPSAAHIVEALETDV

A549 [5] = experiment: Antitumor activity against human A549 cells xenografted in ig dosed BALB/c nude mouse assessed as tumor growth inhibition administered for 30 days measured every 3 days during compound dosing relative to control; type: functional, organism-based
[6] = target: Serine/threonine-protein kinase 25 (Homo sapiens) (UniProt O00506); experiment: Inhibition of human STK25 at 100 nM using MBP as substrate by [gamma-33P]-ATP assay
[7] = target: Serine/threonine-protein kinase 38 (Homo sapiens) (UniProt Q15208); experiment: Inhibition of human STK38 at 100 nM using KKRNRRLSVA as substrate by [gamma-33P]-ATP assay
Chain of Serine/threonine-protein kinase 38 (Homo sapiens) (Q15208 2-465 limits assumed): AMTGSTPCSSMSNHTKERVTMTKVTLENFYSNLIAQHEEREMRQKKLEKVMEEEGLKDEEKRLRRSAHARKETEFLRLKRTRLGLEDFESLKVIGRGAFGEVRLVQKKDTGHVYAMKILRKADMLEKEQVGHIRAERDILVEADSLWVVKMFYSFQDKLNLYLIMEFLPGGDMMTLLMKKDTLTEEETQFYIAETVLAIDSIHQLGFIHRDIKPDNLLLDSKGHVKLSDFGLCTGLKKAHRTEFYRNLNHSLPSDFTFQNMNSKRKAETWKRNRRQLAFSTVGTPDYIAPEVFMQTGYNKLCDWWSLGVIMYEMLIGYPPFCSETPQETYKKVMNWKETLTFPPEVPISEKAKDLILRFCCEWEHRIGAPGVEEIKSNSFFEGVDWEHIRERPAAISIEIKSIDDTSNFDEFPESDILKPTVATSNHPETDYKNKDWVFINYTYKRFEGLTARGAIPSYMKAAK

A549 [8] = experiment: cells; details: Homo sapiens, A549, 72 h
[9] = target: Serine/threonine-protein kinase PLK2 (Homo sapiens) (UniProt Q9NYY3); experiment: Inhibition of human PLK2 at 100 nM using casein as substrate by [gamma-33P]-ATP assay
[10] = target: Tyrosine-protein kinase Blk (Homo sapiens) (UniProt P51451); experiment: Inhibition of human BLK at 100 nM using poly[Glu:Tyr](4:1) as substrate by [gamma-33P]-ATP assay
Chain of Tyrosine-protein kinase Blk (Homo sapiens) (P51451 2-505 limits assumed): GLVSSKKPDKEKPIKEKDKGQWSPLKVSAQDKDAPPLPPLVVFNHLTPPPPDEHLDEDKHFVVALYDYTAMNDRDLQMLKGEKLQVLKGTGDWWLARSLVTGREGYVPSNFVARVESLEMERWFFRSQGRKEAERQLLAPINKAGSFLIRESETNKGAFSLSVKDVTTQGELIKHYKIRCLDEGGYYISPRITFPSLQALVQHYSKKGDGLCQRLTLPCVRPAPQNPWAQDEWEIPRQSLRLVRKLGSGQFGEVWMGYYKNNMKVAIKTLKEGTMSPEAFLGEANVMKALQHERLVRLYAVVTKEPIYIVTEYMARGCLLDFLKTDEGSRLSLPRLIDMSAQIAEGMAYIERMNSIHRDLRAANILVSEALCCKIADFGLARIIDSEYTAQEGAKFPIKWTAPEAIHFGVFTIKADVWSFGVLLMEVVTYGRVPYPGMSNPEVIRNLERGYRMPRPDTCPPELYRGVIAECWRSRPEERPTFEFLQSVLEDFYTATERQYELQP

[11] = target: Tau-tubulin kinase 1 (Homo sapiens) (UniProt Q5TCY1); experiment: Inhibition of human TTBK1 at 100 nM using MBP as substrate by [gamma-33P]-ATP assay
[12] = target: Serine/threonine-protein kinase NLK (Homo sapiens) (UniProt Q9UBE8); experiment: Inhibition of human NLK at 100 nM using MBP as substrate by [gamma-33P]-ATP assay
Chain of Serine/threonine-protein kinase NLK (Homo sapiens) (Q9UBE8 whole entry): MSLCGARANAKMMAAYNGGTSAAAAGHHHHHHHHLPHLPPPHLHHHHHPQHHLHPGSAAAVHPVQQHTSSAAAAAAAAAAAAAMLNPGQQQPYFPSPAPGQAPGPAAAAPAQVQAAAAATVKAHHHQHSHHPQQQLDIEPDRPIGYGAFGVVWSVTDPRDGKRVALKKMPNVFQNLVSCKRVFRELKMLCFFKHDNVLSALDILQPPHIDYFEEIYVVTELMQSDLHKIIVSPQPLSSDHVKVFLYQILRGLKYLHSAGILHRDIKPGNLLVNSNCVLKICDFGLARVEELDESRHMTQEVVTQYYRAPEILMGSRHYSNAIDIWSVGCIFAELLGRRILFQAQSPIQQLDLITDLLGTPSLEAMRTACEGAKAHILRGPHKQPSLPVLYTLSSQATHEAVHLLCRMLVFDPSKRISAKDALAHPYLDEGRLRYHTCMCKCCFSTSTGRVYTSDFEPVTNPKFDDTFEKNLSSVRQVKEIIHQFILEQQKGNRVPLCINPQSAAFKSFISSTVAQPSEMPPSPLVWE

[13] = target: Interleukin-1 receptor-associated kinase 1 (Homo sapiens) (UniProt P51617); experiment: Inhibition of human IRAK1 at 100 nM using MBP as substrate by [gamma-33P]-ATP assay
[14] = target: Serine/threonine-protein kinase TBK1 (Homo sapiens) (UniProt Q9UHD2); experiment: Inhibition of human TBK1 at 100 nM using KRRRAL[pS]VASLPGL as substrate by [gamma-33P]-ATP assay
[15] = target: Serine/threonine-protein kinase TAO3 (Homo sapiens) (UniProt Q9H2K8); experiment: Inhibition of human TAOK3 at 100 nM using MBP as substrate by [gamma-33P]-ATP assay
[16] = target: CDK7/Cyclin H/MNAT1 (Homo sapiens) (UniProt P51946+P50613+P51948); experiment: Inhibition of human CDK7/cyclin-H/MNAT1 at 100 nM using MBP as substrate by [gamma-33P]-ATP assay; type: protein-complex assay
[17] = target: Mitogen-activated protein kinase kinase kinase 2 (Homo sapiens) (UniProt Q9Y2U5); experiment: Inhibition of human MEKK2 at 100 nM using MBP as substrate by [gamma-33P]-ATP assay
[18] = target: LIM domain kinase 1 (Homo sapiens) (UniProt P53667); experiment: Inhibition of human LIMK1 at 100 nM using cofilin as substrate by [gamma-33P]-ATP assay
[19] = target: Dual specificity protein kinase CLK1 (Homo sapiens) (UniProt P49759); experiment: Inhibition of human CLK1 at 100 nM using MBP as substrate by [gamma-33P]-ATP assay
[20] = target: Receptor-interacting serine/threonine-protein kinase 3 (Homo sapiens) (UniProt Q9Y572); experiment: Inhibition of human RIPK3 at 100 nM using MBP as substrate by [gamma-33P]-ATP assay
Chain of Receptor-interacting serine/threonine-protein kinase 3 (Homo sapiens) (Q9Y572 whole entry, looked up): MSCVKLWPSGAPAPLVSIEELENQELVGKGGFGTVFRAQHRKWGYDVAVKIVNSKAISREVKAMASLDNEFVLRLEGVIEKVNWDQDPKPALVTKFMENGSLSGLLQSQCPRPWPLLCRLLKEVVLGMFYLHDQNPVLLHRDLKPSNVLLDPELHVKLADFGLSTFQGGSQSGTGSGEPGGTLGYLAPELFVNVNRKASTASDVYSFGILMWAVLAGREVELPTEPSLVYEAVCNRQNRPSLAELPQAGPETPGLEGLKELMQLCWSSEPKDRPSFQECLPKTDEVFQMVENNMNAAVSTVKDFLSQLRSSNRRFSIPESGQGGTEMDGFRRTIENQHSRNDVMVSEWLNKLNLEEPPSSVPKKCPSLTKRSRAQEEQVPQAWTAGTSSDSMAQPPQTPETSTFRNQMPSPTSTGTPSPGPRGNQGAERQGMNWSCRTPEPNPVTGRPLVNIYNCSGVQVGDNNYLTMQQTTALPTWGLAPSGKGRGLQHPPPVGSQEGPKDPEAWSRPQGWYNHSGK

[21] = target: Serine/threonine-protein kinase PLK1 (Homo sapiens) (UniProt P53350); experiment: Inhibition of human PLK1 at 100 nM using casein as substrate by [gamma-33P]-ATP assay
[22] = target: RAC-beta serine/threonine-protein kinase (Homo sapiens) (UniProt P31751); experiment: Inhibition of human AKT2 at 100 nM using KGSGSGRPRTSSFAEG as substrate by [gamma-33P]-ATP assay
Chain of RAC-beta serine/threonine-protein kinase (Homo sapiens) (P31751 whole entry): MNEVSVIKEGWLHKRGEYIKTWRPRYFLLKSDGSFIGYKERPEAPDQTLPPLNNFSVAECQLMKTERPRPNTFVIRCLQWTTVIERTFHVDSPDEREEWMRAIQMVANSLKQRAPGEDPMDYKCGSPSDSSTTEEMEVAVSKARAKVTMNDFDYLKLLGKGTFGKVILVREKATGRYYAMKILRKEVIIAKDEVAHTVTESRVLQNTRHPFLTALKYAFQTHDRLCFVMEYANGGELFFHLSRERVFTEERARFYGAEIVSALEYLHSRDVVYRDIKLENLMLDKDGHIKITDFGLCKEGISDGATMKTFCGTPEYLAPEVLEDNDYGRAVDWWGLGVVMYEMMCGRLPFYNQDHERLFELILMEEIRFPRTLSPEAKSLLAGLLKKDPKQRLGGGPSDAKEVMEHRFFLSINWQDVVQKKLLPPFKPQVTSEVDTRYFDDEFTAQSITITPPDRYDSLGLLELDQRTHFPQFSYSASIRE

[23] = target: [Pyruvate dehydrogenase (acetyl-transferring)] kinase isozyme 3, mitochondrial (Homo sapiens) (UniProt Q15120); experiment: Inhibition of human PDK3 at 100 nM using MBP as substrate by [gamma-33P]-ATP assay
[24] = target: STE20-like serine/threonine-protein kinase (Homo sapiens) (UniProt Q9H2G2); experiment: Inhibition of human SLK at 100 nM using Histone H3 as substrate by [gamma-33P]-ATP assay
[25] = target: Serine/threonine-protein kinase B-raf (Homo sapiens) (UniProt P15056); experiment: Inhibition of human BRAF at 100 nM using MEK1 (K97R) as substrate by [gamma-33P]-ATP assay
[26] = target: High affinity nerve growth factor receptor (Homo sapiens) (UniProt P04629); experiment: Inhibition of human TRKA at 100 nM using poly[Glu:Tyr] (4:1) as substrate by [gamma-33P]-ATP assay
[27] = target: Serine/threonine-protein kinase WNK3 (Homo sapiens) (UniProt Q9BYP7); experiment: Inhibition of human WNK3 at 100 nM using MBP as substrate by [gamma-33P]-ATP assay
[28] = target: Serine/threonine-protein kinase Nek7 (Homo sapiens) (UniProt Q8TDX7); experiment: Inhibition of human NEK7 at 100 nM using casein as substrate by [gamma-33P]-ATP assay
Chain of Serine/threonine-protein kinase Nek7 (Homo sapiens) (Q8TDX7 whole entry, looked up): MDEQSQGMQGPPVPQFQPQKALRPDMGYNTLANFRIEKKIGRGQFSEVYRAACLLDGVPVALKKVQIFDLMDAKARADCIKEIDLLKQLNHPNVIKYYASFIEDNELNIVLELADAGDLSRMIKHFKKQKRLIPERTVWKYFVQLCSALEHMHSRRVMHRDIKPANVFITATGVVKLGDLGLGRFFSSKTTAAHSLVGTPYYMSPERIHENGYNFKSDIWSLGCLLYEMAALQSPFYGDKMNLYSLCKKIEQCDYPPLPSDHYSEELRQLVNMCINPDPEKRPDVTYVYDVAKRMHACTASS

[29] = target: Testis-specific serine/threonine-protein kinase 1 (Homo sapiens) (UniProt Q9BXA7); experiment: Inhibition of human STK22D at 100 nM using KKKVSRSGLYRSPSMPENLNRPR as substrate by [gamma-33P]-ATP assay
Chain of Testis-specific serine/threonine-protein kinase 1 (Homo sapiens) (Q9BXA7 whole entry): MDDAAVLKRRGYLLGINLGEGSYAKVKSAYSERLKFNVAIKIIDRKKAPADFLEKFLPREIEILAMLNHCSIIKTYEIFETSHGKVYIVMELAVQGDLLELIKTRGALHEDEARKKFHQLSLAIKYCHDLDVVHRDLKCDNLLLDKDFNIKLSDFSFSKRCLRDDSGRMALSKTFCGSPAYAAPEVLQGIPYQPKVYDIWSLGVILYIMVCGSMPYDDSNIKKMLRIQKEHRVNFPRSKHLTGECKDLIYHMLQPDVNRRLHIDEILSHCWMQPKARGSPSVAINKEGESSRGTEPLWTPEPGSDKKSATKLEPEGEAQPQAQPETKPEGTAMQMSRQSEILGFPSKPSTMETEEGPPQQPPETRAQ

[30] = target: Non-receptor tyrosine-protein kinase TNK1 (Homo sapiens) (UniProt Q13470); experiment: Inhibition of human TNK1 at 100 nM using poly[Glu:Tyr] (4:1) as substrate by [gamma-33P]-ATP assay
[31] = target: Phosphatidylinositol 4,5-bisphosphate 3-kinase catalytic subunit gamma isoform (Homo sapiens, UniProt P48736); experiment: Inhibition of recombinant human full length N-terminal DYKDDDDK-tagged PI3Kgamma (1 to 1102 residues) expressed in baculovirus expression system using PIP2 as substrate incubated for 2 hrs by ADP-Glo assay

Chain of Dual specificity mitogen-activated protein kinase kinase 6 (Homo sapiens) (P52564 whole entry): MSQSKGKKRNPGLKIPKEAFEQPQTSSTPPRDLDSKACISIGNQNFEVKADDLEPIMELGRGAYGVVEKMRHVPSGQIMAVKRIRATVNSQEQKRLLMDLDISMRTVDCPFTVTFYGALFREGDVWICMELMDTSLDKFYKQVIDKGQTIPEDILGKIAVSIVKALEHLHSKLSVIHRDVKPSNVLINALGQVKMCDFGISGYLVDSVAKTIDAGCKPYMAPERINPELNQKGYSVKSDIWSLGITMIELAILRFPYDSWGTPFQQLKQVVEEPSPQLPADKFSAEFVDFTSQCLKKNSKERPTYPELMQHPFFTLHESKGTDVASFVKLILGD

For COc1ccc(N2C(=O)COc3ccc(-c4cnc(OC)c(NS(=O)(=O)c5ccc(F)cc5)c4)cc32)cc1, the inhibition [1] was 4.5%, the inhibition [2] was 25.9% and the inhibition [3] was -2.59%. The inhibition [4] was 0.99%, the TGI (A549 [5]) was “Dose-dependent effect” and the inhibition [6] was 0.52%. The inhibition [7] was 4.17%, the IC50 (A549 [8]) was 1350 nM and the inhibition [9] was 4.64%. The inhibition [10] was 27.5%, the inhibition [11] was -1.55% and the inhibition [12] was 10.8%. The inhibition [13] was -5.22%, the inhibition [14] was 5.37% and the inhibition [15] was 6.13%. For the same compound, the inhibition [16] was -3.2%, the inhibition [17] was 28.4% and the inhibition [18] was -3.87%. The inhibition [19] was 7.77%, the inhibition [20] was -2.23% and the inhibition [21] was 8.68%. It also gave an inhibition [22] of 28.1%, an inhibition [23] of 8.78% and an inhibition [24] of -0.32%. The inhibition [25] was 5.74%, the inhibition [26] was 5.12% and the inhibition [27] was -0.32%. The inhibition [28] was 4.12%, the inhibition [29] was -6.47% and the inhibition [30] was 10.7%. For the same compound, the IC50 [31] was 22 nM.
